Where two headings read alike, the source gives them in different places.
What was measured:
[1] = tested on: bile transport activity in liver organoids
Description: To determine if FD can be used for live assessment of transport capacity without exchanging the medium and adjusting exposure, chronological hepatobiliary transport activity was further investigated with time-lapse imaging. […] The opposite directionality of this transport flow was determined by the micro-injection of FD into organoids.
To quantify the inhibitory potential for FD excretion, Applicant developed a simple but robust quantification method by determining the fluorescent intensity ratio between outside and inside the organoid by image J (FIG. 4, panel B).
Fluorescein diacetate was used for evaluating bile transport activity in organoids. Around Day 25, the organoids were rinsed with PBS, and, fluorescein diacetate was treated to organoids in medium. In addition, to investigate the direction of transport, fluorescein diacetate was injected to organoids using by Nanoject III (Drummond Scientific). After treatment or injection of fluorescein diacetate, images were captured on fluorescent microscopy BZ-X710 (Keyence). […] Changes in brightness or contrast during processing were applied equally across the entire image.

human liver organoids = conditions: for organoid viability / cell viability: human; for organoid viability: 130 μM; for cell viability: 50 μM
lipotoxic organoid model = assay: Viability in organoids on vulnerable (lipotoxic, oleic acid) condition; format: cell-based, human
Description: Next, 50 μM of Troglitazone was treated with or without 50 μM NAC for 24h. […] Images were captured sequentially using fluorescent microscopy BZ-9000.

[2] = tested on: human iPSC-derived liver organoids; assay: Albumin secretion of organoids (ELISA); format: cell-based
Description: On Day 7-8, definitive endoderm organoids with plated cells were gently pipetted to delaminate from dishes. Isolated spheroids were centrifuged at 800 rpm for 3 minutes and, after removing supernatant, embedded in 100% matrigel drop on the dishes. The plates were placed at 37° C. in an atmosphere of 5% CO2/95% air for 5-15 min. After the Matrigel was solidified, Advanced DMEM/F12 was added with B27, N2 and Retinoic acid (RA; Sigma, St. Louis, Mo.) 2 μM for 1-5 days. The media was replaced every other day. After RA treatment, organoids embedded in Matrigel drop were cultured in Hepatocyte culture medium (HCM Lonza, Walkersville, Md.) with 10 ng/mL hepatocyte growth factor (HGF; PeproTech, Rocky Hill, N.J.), 0.1 μM Dexamethasone (Dex; Sigma) and 20 ng/mL Oncostatin M (OSM; R&D Systems). Cultures for cell differentiation were maintained at 37° C. in an atmosphere of 5% CO2/95% air and the medium was replaced every 3 days. Around Day 20-30, organoids embedded in Matrigel drop were isolated by scratching and gentle pipetting for any analyses.
For measuring albumin, fibrinogen and complement factors secreted level of organoids, 200 μL of culture supernatant of organoids on Ultra-Low attachment 96 well plates (Corning) were collected. The culture supernatants were collected and stored at −80° C. until use. The supernatant was assayed with Human Albumin ELISA Quantitation Set (Bethyl Laboratories, Inc., TX, USA) and fibrinogen (Thermo Fisher Scientific) according to the manufacturer's instructions. For analyzing complement factors, supernatants were measured with Luminex System (Luminex Corporation, Austin, Tex.) according to the manufacturer's instructions. To calculate albumin production per the number of cells, the linear regression equation of cell numbers by diameter of an organoid was used. For measuring total bile acid secreted level intra-luminal organoids, fluid inside organoids was absorbed using microinjection Nanoject II (Drummond Scientific, Broomall, Pa., USA). Fluid absorbed was dilute in PBS and assayed with Total Bile Acid ELISA Kit (Antibodies-online, Inc., GA, USA). To calculate the volume of total bile acid, the number of cells in organoid was calculated using the linear regression equation in the same manner for albumin production and the molecular weight of cholic acid was used for calculation and comparing with volume in previous report.

liver organoids = assay: Lipid accumulation in organoids after oleic acid (BODIPY live staining); format: cell-based, human; conditions: 3 days after oleic acid treatment
Description: Images were captured sequentially using fluorescent microscopy BZ-9000. […] The following regents or kits were used: BODIPY® 493/503 for lipids (Thermo Fisher Scientific), and SiR Actin Kit for cytoskeleton (USA Scientific, FL, USA), CellROX® Green Reagent for ROS (Fisher Scientific), TMRM (Thermo Fisher Scientific) for mitochondria. […] ROS production, mitochondria size and number were analyzed by IMARIS 8.

COc1ccccc1Oc1c(NS(=O)(=O)c2ccc(C(C)(C)C)cc2)nc(-c2ncccn2)nc1OCCO [Bosentan]
efflux of FD (bile transport inhibition) [1]: significantly decreased

CCN(CC)C(=O)/C(C#N)=C/c1cc(O)c(O)c([N+](=O)[O-])c1 [Entacapone]
organoid viability (human liver organoids; 24 h): 85% | organoid viability (human liver organoids; 72 h): 64%

CC(=O)N[C@@H](CS)C(=O)O [NAC, N-acetylcysteine]
cell viability with NAC (rescue from Troglitazone toxicity) (lipotoxic organoid model; lipotoxic condition, 50 μM Troglitazone with 50 μM NAC, 24h): significantly improved

CCc1nn(CCCN2CCN(c3cccc(Cl)c3)CC2)c(=O)n1CCOc1ccccc1 [Nefazodone]
efflux of FD (bile transport inhibition) [1]: significantly decreased | cell viability at 72 hours relative to TOL, DICLO and BOS (human liver organoids): significantly lowered

CC1=C(/C=C/C(C)=C/C=C/C(C)=C/C(=O)O)C(C)(C)CCC1 [RA, retinoic acid]
albumin secretion level of organoids at D25 ([2]; 1 day of RA treatment): 1160 ng/mL | albumin secretion level of organoids at D25 ([2]; 2 days of RA treatment): 1054 ng/mL | albumin secretion level of organoids at D25 ([2]; 3 days of RA treatment): 3092 ng/mL | albumin secretion level of organoids at D25 ([2]; 4 days of RA treatment): 4709 ng/mL | albumin secretion level of organoids at D25 ([2]; 5 days of RA treatment): 3865 ng/mL

CN(CCOc1ccc(CC2SC(=O)NC2=O)cc1)c1ccccn1 (stereo not shown) [Rosiglitazone]
toxicity in steatotic organoids (lipotoxic organoid model): vulnerable

Cc1c(C)c2c(c(C)c1O)CCC(C)(COc1ccc(CC3SC(=O)NC3=O)cc1)O2 (stereo not shown) [Troglitazone]
cell viability compared to control (lipotoxic organoid model; lipotoxic condition (800 μM oleic acid 3 days), 50 μM for 24h, p<0.05): −40% | organoid morphology on lipotoxic condition (lipotoxic organoid model; lipotoxic condition, 24h): massive fragmentation of organoids | efflux of FD (bile transport inhibition) [1]: significantly decreased | cell viability at 72 hours relative to TOL, DICLO and BOS (human liver organoids): significantly lowered | cell viability (human liver organoids; 24 h): 85% | cell viability (human liver organoids; 72 h): 67%

CCCCCCCC/C=C\CCCCCCCC(=O)O [oleic acid]
lipid accumulation in organoids (liver organoids): intense

— patent US20190298775A1, “LIVER ORGANOID COMPOSITIONS AND METHODS OF MAKING AND USING SAME” (Children's Hospital Medical Center, priority 2016, published 2019)
